Reference: patent publication US20250002974A1, “PROTECTING FULLY FUNCTIONAL NUCLEOTIDES FROM DEGRADATION” (Illumina, Inc., priority 2023, published 2025)
Each block holds one compound with its values, some of them ahead of it.

Assays:
[1] = lyophilized ffN cakes with 30 mM cationic additive staged at 60° C. for 3 days, diphosphate by HPLC; assay type: physicochemical; conditions: 30 mM additive, 60° C. 3 days
Method: FIG. 12 provides data showing the percent diphosphate ffC detected via HLPC after staging for 60° C. for 3 days (3D) in the presence of 30 mM imidazolium additive (lyophilized cakes; n=2; CTRL=control sample with no additive).
FIG. 13 provides data showing the percent diphosphate ffC detected via HLPC after staging for 60° C. for 3 days (3D) in the presence of 30 mM pyridinium additives (lyophilized cakes; n=2; CTRL=control with no additive).
FIG. 14 provides data showing the percent diphosphate ffC detected via HLPC after staging for 60° C. for 3 days (3D) in the presence of 30 mM quaternary additives (lyophilized cakes; n=2; CTRL=control with no additive).
The efficacies of the other cationic substrates were also tested. This was performed using lyophilized ffN cake samples that were formulated with and without said additives, and by staging at an arbitrarily selected stress condition of 60° C. for a period of 3 days.

[2] = ffNs stored with TBMACL for 35 days at 35° C. or 45° C., diphosphate production; assay type: physicochemical
Method: TBMACL was tested to determine if it provided protection to the triphosphate of ffNs as heat stress increased. ffNs were stored with TBMACL for 35 days. In one of the storage conditions, the temperature was 35° C. and in the other storage condition, the temperature was 45° C. […] At 35° C. for 35 days TBMACL caused a 10% reduction in diphosphate production. This can be compared to 45° C. for 35 days where TBMACL caused a 17% reduction in diphosphate production.

[3] = stability of ffNs in dry state (TBMACL) or liquid state (CHAPS); assay type: physicochemical
Excerpt: FIG. 24 provides data showing that addition of the cationic compound Tributylmethylammonium chloride (TBMACL) to ffNs in a dry state increases stability of triphosphate on the ffNs.
FIG. 25 provides data showing that the addition of CHAPS as well as CHAPS and TBMACL to ffNs in a liquid state increases the stability of intact ffNs.

Arthrobacter russicus = test: bacterial growth in incorporation mix with TBMACL titration, plating for CFU/ml; assay type: cell-based
Method: To confirm the biocidal effect of TBMACl within liquid sequencing reagents, a titration of TBMACL from 9 mM to 90 mM in incorporation mix was prepared. These experiments were carried out with the omission of polymerase and ffNs in the formulation, as they were not required for the further analysis. On day 0, samples were inoculated with 3×10^6 CFU/ml of the bacteria Arthrobacter russicus. The samples were staged at 12° C. for 0, 14 and 30 days, followed by plating to determine CFU/ml. FIGS. 26-27 provide data showing use of a bulky cationic compound to inhibit bacterial growth. More specifically, FIG. 26 illustrates A. russicus growth in a titration of TBMACL over 30 days at 12° C.; the data shown is on a linear Y axis. FIG. 27 illustrates the same data, with a logarithmic scale Y axis. It may be understood from FIGS. 26-27 that the greater the concentration of TBMACL, the greater the inhibition of bacterial growth. […] In the absence of TBMACL, the CFU/ml increase by about 1.8-fold over 30 days. […] The sample with 90 mM TBMACL appeared to kill essentially all bacteria by day 14, and all bacteria appeared to remain dead at day 30.

[4] = ffN stress test with or without 10 mM DADMAC, purity by HPLC peak area percent; assay type: physicochemical
Method: DADMAC (diallyldimethylammonium chloride): 100 μM ffNs were stressed in the presence of 10 mM DADMAC (FIG. 19) in 15 mM 3-(N-morpholino)propanesulfonic acid (MOPS) buffer and 5× glycine buffer (250 mM glycine pH 9.9, 250 mM NaCl, 5 mM ethylediaminetetraacetic acid (EDTA)). Each type of ffNs were tested: ffA, ffC, ffT, and ffG.
The samples were staged for 2 days at 40° C. in the glycine buffer, 2 days at 65° C. and 7 days at 4° C. in the MOPS buffer. DADMAC was tested to see if it could be added to the incorporation mix or ffN mixtures without causing any negative interactions with ffNs.

[5] = ffN stability staged with surfactants in solution, 45° C. 7 days; assay type: physicochemical; conditions: 45° C. for 7 days, solution format
Method: Each of the surfactants was tested at two different concentrations, 0.5% and 2%.

[6] = ffNs stored with CHAPS at 45° C. for 7 or 21 days, percent peak area retention; assay type: physicochemical
Method: CHAPS was tested to determine if it prevented degradation of ffNs as the level of heat stress increased. In one of the reaction conditions ffNs were stored with CHAPS for 7 days at 45° C., and the other reaction condition ffNs were stored with CHAPs for 21 days at 45° C.

[7] = 1 to 40 mM TBACL; 45° C. 7 days; solution format
Excerpt: As such, even higher concentrations of cations were not pursued.

Structure (SMILES): Cl.N [ACL, ammonium chloride]
effect on triphosphate stability / diphosphate formation [1]: higher level of diphosphate formation

reduction in diphosphate ffN formed vs control without additive [1]: ≤ 23%
reduction in diphosphate production ([2]; 35° C. for 35 days): 10%
reduction in diphosphate production ([2]; 45° C. for 35 days): 17%
Structure (SMILES): CCCC[N+](C)(CCCC)CCCC.[Cl-] [TBMACL, tributylmethylammonium chloride]
stability of triphosphate species of ffNs ([3]; ffNs in a dry state): increased stability of the trisphosphate species
effect on bioburden load (CFU/ml) (Arthrobacter russicus; 9 mM TBMACL, 30 days at 12° C.): approximately static effect
reduction of CFU/ml (Arthrobacter russicus; 22.5 mM TBMACL, 30 days at 12° C.): 6 fold
reduction of CFU/ml (Arthrobacter russicus; 45 mM TBMACL, 30 days at 12° C.): 8.6 fold
reduction of CFU/ml (Arthrobacter russicus; 90 mM TBMACL, 30 days at 12° C.): about 78,000 fold
biocidal effect on bacterial growth (Arthrobacter russicus; titration 9 mM to 90 mM in incorporation mix): dose-dependent biocidal effect

Structure (SMILES): C=CC[N+](C)(C)CC=C.[Cl-] [DADMAC, diallyldimethylammonium chloride]
effect of DADMAC on ffN purity and diphosphate ([4]; high temperatures, all 4 ffNs): higher % ffN purity as compared to control and lower levels of diphosphate
effect of DADMAC on ffNs ([4]; milder stress conditions): no negative effect

reduction in diphosphate ffN formed vs control without additive [1]: approximately 17%
Structure (SMILES): CCCC[n+]1ccccc1.[Br-] [BPB, 1-butylpyridinium bromide]

Structure (SMILES): C[C@H](CCC(=O)NCCC[N+](C)(C)CCCS(=O)(=O)[O-])[C@H]1CC[C@H]2[C@@H]3[C@H](O)C[C@@H]4C[C@H](O)CC[C@]4(C)[C@H]3C[C@H](O)[C@]12C [CHAPS, 3-[(3-cholamidopropyl)dimethylammonio]-1-propanesulfonate]
increase in ffN retention against the control sample [5]: ~40%
improvement in percent peak area retention ([6]; 7 days at 45° C.): 27%
improvement in percent PA retention ([6]; 21 days at 45° C.): 113%
stability of triphosphate species of ffNs ([3]; ffNs in a liquid state): increased the stability of trisphosphate species

Structure (SMILES): CCCC[N+](CCCC)(CCCC)CCCC.[Cl-] [TBACL, tetrabutylammonium chloride]
dephosphorylation (percent diphosphate ffC) [7]: reduced dephosphorylation

Structure (SMILES): CC[n+]1ccc(C(=O)OC)cc1.[I-] [EMPI, 1-ethyl-4-(methoxycarbonyl)pyridinium iodide]
effect on triphosphate stability / diphosphate formation [1]: negatively impacted triphosphate stability
